Data set [1] is described as follows: Retinoid degradation in the presence of BPO. The data set is classed as physicochemical. The method, then: Another technical problem to be solved for the formulation of a composition comprising both adapalene and BPO is the chemical and physical compatibility of these compounds within the same formulation provided that common retinoids are natural oxidization sensitive, visible light and ultra violet sensitive and BPO being a strong oxidizing agent.
Indeed, BPO triggers rapidly degradation of natural oxidization sensitive retinoids: 50% of tretinoine is degraded within 2 hours and 95% is degraded within 24 hours.

For data set [2] the following is noted: 40° C., cited from earlier work.

Where two headings read alike, the source gives them in different places.

Take `COc1ccc(-c2ccc3cc(C(=O)O)ccc3c2)cc1C12CC3CC(CC(C3)C1)C2` [adapalene, 6-[3-(1-adamantyl)-4-methoxyphenyl]-2-naphthoic acid]: the “adapalene degradation in the composition with BPO” value in data set [1] (within 24 hours) was “no adapalene degradation”.

On to `CC1=C(/C=C/C(C)=C/C=C/C(C)=C/C(=O)O)C(C)(C)CCC1` [tretinoine], for which the results for the “retinoid degraded in the presence of BPO” value in data set [1] (within 2 hours) and in data set [1] (within 24 hours) were 50% and 95%, respectively.

Take `O=C(OOC(=O)c1ccccc1)c1ccccc1` [BPO, benzoyl peroxide]: the figures for the BPO degradation time in data set [2] (in PEG 400 (0.5 mg/g)), in data set [2] (in ethanol) and in data set [2] (in propylene glycol) were 14 days, 29 days and 53 days, respectively.

Values taken from patent US20170216235A1, “ADMINISTRATION OF ADAPALENE AND BENZOYL PEROXIDE FOR THE LONG-TERM TREATMENT OF ACNE VULGARIS” (GALDERMA RESEARCH & DEVELOPMENT, priority 2007, published 2017).
